Data reported in patent US20230391868A1, “COMPOSITIONS FOR AND METHODS OF TREATING CANCER” (The George Washington University, priority 2022, published 2023).

Key:
[1] = biological target: mouse CD47 on the surface of SM1 melanoma cells (mouse) (UniProt Q61735); assay: flow cytometry titration on SM1 cells; free CD47 read with PE anti-mouse CD47 (miap301), bound antibody read with PE anti-rat IgG2a
[2] = system: SM1 melanoma cells; assay: Cd47 mRNA upon IFNγ stimulation in SM1 cells; assay type: cell-based, mouse
Protocol: (§1) qRT-PCR: Total RNA was extracted from cells using the Trizol reagent according to manufacturer's instructions (ThermoFisher Scientific, 15596018). Samples were then processed immediately or stored at −80° C. RNA was quantified using a NanoDrop One Spectrophotometer (ThermoFisher Scientific). The 260/280 ratios were routinely over 1.8. Sample cDNA was produced using the iScript cDNA synthesis kit (Bio-Rad, 1708891). Target mRNA was quantified using MyIQ single-color real-time PCR detection system from Bio-Rad (Bio-Rad, Hercules, CA) and iQ SYBR green Supermix (Bio-Rad, 1708882). The following primers were synthesized by Invitrogen (Waltham, MA) with sequences designed by Origene (Rockville, MD): mouse R-actin (MP200232), mouse Nos2 (MP208933), mouse MRC1 (MP207800), human R-actin (HP204660), human IL-1β (HP200544), human MRC1 (HP206121), human NOS2 (HP200591), human CD209 (HP214086), mouse SIRPα (MP215450), mouse LRP1 (MP207604), human LRP1 (HP206040), mouse MFGE8 (MP208190), human MFGE8 (HP225757), mouse CD36 (MP201923), human CD36 (HP200058), and mouse CD47 (MP201932). Primers for mouse ARG-1 (PPM31770C) and human SIRPα (QT01031051) were purchased from Qiagen (Hilden, Germany). […] Quantification is expressed in arbitrary units and target mRNA levels were normalized to R-actin expression.
(§2) Although the mechanism by which IFNγ drives CD47 upregulation is unclear, IFNγ expression correlates to CD47 expression in skin cutaneous melanoma (Ye Z H, et al. (2021) Transl. Oncol. 14:101162). The kinetics of Cd47 mRNA in SM1 and B16 cells upon IFNγ stimulation (100 ng/mL) were evaluated and these mouse melanoma models were determined to have different kinetics (FIG. 9A-FIG. 9B). It was determined that 12 hours was a time point for both models to sustain the IFNγ-mediated upregulation. In FIG. 9B, the role of HDAC6 inhibitors NextA and Tubastatin A in abrogating Cd47 upregulation upon stimulation with IFNγ for 12 hours was evaluated.

[3] = system: human THP1-derived macrophages; assay: Pro-phagocytic signal gene expression in THP1-derived macrophages; assay type: cell-based; settings: human THP1-derived macrophages (FIG. 8E); corroboration of NextA increase
Protocol: (§3) Macrophages were polarized to M1-like phenotype using 50 ng/mL of interferon gamma (IFNγ, 575306, Biolegend) and 100 ng/mL of bacterial lipopolysaccharide (LPS, L2880, Sigma Aldrich, St. Louis, MO) for 24 hours. To polarize macrophages towards the M2-like phenotype, macrophages were stimulated with 20 ng/mL of IL-4 (214-14, PeproTech) and 20 ng/mL of IL-13 (575904, Biolegend). THP1 monocytes were treated with 5 ng/mL of phorbol 12-myristate 13-acetate (PMA) to induce differentiation into macrophages. Once converted to macrophages, media was replaced to remove PMA prior to treatment and/or polarization. Polarization towards M1 and M2 phenotypes was performed with respective recombinant human cytokines from PeproTech: 50 ng/mL of IFNγ (300-02), 20 ng/mL IL-4 (200-04), and 20 ng/mL IL-13 (200-13). 100 ng/mL LPS was also used to polarize toward the M1 phenotype. 3. In vivo Studies.
as §1, with “(MP201932).” for “(MP201932). Primers for mouse ARG-1 (PPM31770C) and human SIRPα (QT01031051) were purchased from Qiagen (Hilden, Germany).”

[4] = system: A31A7 macrophages and BMDMs; assay: Macrophage M1/M2 marker gene expression by qRT-PCR; assay type: cell-based, mouse; settings: A31A7; qRT-PCR (FIG. 7D-FIG. 7E)
Protocol: Bone marrow-derived macrophages were isolated from the femurs and tibias of wild-type C57/Bl6, HDAC6 knockout (C57BL/6J-Hdac6em2Lutzy/J, 029318, Jackson Laboratory), or UBC-GFP (C57BL/6-Tg(UBC-GFP)30Scha/J, 004353, Jackson Laboratory). Isolated bone marrow cells were cultured in RPMI 1640 complete medium with 10% FBS, 1% NEAA, and 1% penicillin-streptomycin in 5% CO2 at 37° C. Medium was supplemented with murine recombinant M-CSF (20 ng/mL, 576404, Biolegend) to differentiate monocytes into macrophages. Three days after bone marrow isolation, undifferentiated and floating cells were washed with PBS and replaced with fresh RPMI media. […]
as §3
(§4) qRT-PCR: Total RNA was extracted from cells using the Trizol reagent according to manufacturer's instructions (ThermoFisher Scientific, 15596018). Samples were then processed immediately or stored at −80° C. RNA was quantified using a NanoDrop One Spectrophotometer (ThermoFisher Scientific). The 260/280 ratios were routinely over 1.8. Sample cDNA was produced using the iScript cDNA synthesis kit (Bio-Rad, 1708891). Target mRNA was quantified using MyIQ single-color real-time PCR detection system from Bio-Rad (Bio-Rad, Hercules, CA) and iQ SYBR green Supermix (Bio-Rad, 1708882). The following primers were synthesized by Invitrogen (Waltham, MA) with sequences designed by Origene (Rockville, MD): mouse R-actin (MP200232), mouse Nos2 (MP208933), mouse MRC1 (MP207800), human R-actin (HP204660), human IL-1β (HP200544), human MRC1 (HP206121), human NOS2 (HP200591), human CD209 (HP214086), mouse SIRPα (MP215450), mouse LRP1 (MP207604), human LRP1 (HP206040), mouse MFGE8 (MP208190), human MFGE8 (HP225757), mouse CD36 (MP201923), human CD36 (HP200058), and mouse CD47 (MP201932). Primers for mouse ARG-1 (PPM31770C) and human SIRPα (QT01031051) were purchased from Qiagen (Hilden, Germany). Human CD47 primer sequences were obtained from Sudo T, et al and are 5′-[…]-3′ (sense) (SEQ ID NO:01) and 5′-[…]-3′ (antisense) (SEQ ID NO:02) (Sudo T, et al. (2017) Oncol. Lett. 14:801-809). Human CD86 primer sequences are 5′-[…]-3′ (sense) (SEQ ID NO:03) and 5′-[…]-3′ (antisense) (SEQ ID NO:04). Mouse CD80 sequences are 5′-[…]-3′ (sense) (SEQ ID NO:05) and 5′-[…]-3′ (antisense) (SEQ ID NO:06). Cycling conditions were set as per manufacturer's instructions. Single product amplification was confirmed by melting curve analysis. Quantification is expressed in arbitrary units and target mRNA levels were normalized to R-actin expression.

[5] = system: THP1-derived macrophages; assay: M1/M2 marker gene expression in THP1-derived macrophages by qRT-PCR; assay type: cell-based, human; settings: gene expression (FIG. 7H)
Protocol: as §3
as §4, with “expression. […]” for “expression.”

[6] = system: B16 melanoma cells; assay: Cd47 mRNA upon IFNγ stimulation in B16 cells; assay type: cell-based, mouse
Protocol: as §1, §2

[7] = Laengle J, et al. (2020); cited from earlier work
[8] = IFNγ stimulation (100 ng/mL) for 12 hours

Chain of UniProt Q61735 (Q61735 19-303): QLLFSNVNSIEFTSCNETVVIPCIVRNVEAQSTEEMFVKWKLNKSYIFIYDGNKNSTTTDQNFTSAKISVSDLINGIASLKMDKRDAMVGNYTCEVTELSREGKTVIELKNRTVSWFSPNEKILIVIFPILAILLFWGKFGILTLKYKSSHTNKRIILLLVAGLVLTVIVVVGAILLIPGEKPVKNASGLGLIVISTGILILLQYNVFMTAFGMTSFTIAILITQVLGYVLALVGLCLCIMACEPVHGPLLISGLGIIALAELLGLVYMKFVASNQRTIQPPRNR

Molecule | expression of pro-phagocytic signals [3] | Arg1 in M2 polarized macrophages [4] | Cd80 expression in M1-like macrophages [4] | effects on THP1-derived macrophage M2-like polarization [5] | further results
anti-mouse CD47 (clone miap301, 127502, Biolegend) (antibody) |  |  |  |  | lowest antibody concentration that provided maximum surface CD47 blockade and epitope saturation [1]: 25 µg/mL
CN1CCc2c(c3ccccc3n2Cc2ccc(C(=O)NO)cc2)C1 [Tubastatin A] | corroborated | downregulated | upregulated | verified | IFNγ-driven Cd47 upregulation at the transcriptional level ([2]; IFNγ for 12 hours): repressed these effects; IFNγ-driven Cd47 upregulation at the transcriptional level ([6]; IFNγ for 12 hours): repressed these effects
O=C(CCCCCCC(=O)Nc1ccccc1)NO [SAHA, suberoylanilide hydroxamic acid] |  |  |  |  | trastuzumab-mediated phagocytosis [7]: enhance trastuzumab-mediated phagocytosis
O=C(CCCCCCC(=O)Nc1ccc([C@H]2O[C@@H](CSc3nc(-c4ccccc4)c(-c4ccccc4)o3)C[C@@H](c3ccc(CO)cc3)O2)cc1)NO [Tubacin] | corroborated | downregulated | upregulated | verified | 
IFNγ: interferon gamma, cytokine used to stimulate Cd47 upregulation (protein, UniProt P01580 23-155, looked up) Interferon gamma: HGTVIESLESLNNYFNSSGIDVEEKSLFLDIWRNWQKDGDMKILQSQIISFYLRLFEVLKDNQAISNNISVIESHLITTFFSNSKAKKDAFMSIAKFEVNNPQVQRQAFNELIRVVHQLLPESSLRKRKRSRC |  |  |  |  | Cd47 upregulation [2, 8]: 1.6 fold; Cd47 upregulation [6, 8]: 10 fold
